The target of assay [1] is T1, CAIX-expressing human HT-29 colorectal cancer cells (Homo sapiens, UniProt Q16790).
T1 construct: CAIX-expressing human HT-29 colorectal cancer cells; host or cells: HT-29 human colorectal cancer cells
The experiment in a line: FACS binding assay (IC50 determination, competition with tracer 3BP-2776 or 3BP-4149). The following applies: 4° C., 1 hour, read-out: pIC50 category (activity) (converted). The procedure, abridged: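 HT-29 cells in FACS buffer (PBS, 1% FCS) at 500.000 cells/ml were exposed to compounds competing with a labelled tracer, with biotinylated compounds detected by 1 μg/mL APC-streptavidin for 30 min on ice. APC/Cy5 median fluorescence was read by flow cytometry and IC50 derived by 4PL fit.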

For assay [2], the target named is T2, human carbonic anhydrase IX (hCAIX-Fc) (Homo sapiens, UniProt Q16790).
T2 construct: purchased SinoBliological (Sino Biological) 10107-H02H
The experiment in a line: Surface plasmon resonance assay with hCAIX-Fc. Type of assay: binding. Particulars: 25° C.; for t1/2 category (activity): SPR dissociation half-life, hCAIX-Fc; for Kd: SPR, hCAIX-Fc captured, read-out: pKD category (activity) (converted). For orientation: SPR reads the build-up and loss of mass on a sensor chip optically.

[3] abbreviates: FACS binding assay, HT-29 cells, competition with tracer 3BP-2776 (10 nM, biotin-labeled).
Setting [4] is: FACS binding assay, HT-29 cells, competition with tracer 3BP-4149 (3 nM, Cy5-labeled).

Read-outs that look alike come from different tables or passages of the source. Starred links: 1 amine or outer side, 2 acyl side, 3 side chain; linkers in the order of their positions; H or OH if unused. Positions of bridges follow the written chain, without caps; N, C: chain ends. Non-standard residues stand in square brackets, D forms with d. Residues, ends and D or L forms follow the SMILES beside them. ξ: configuration not given here. *: point of attachment. Phe(3-NHCO(CH2)3SO2NH2) = N[C@@H](Cc1cccc(NC(=O)CCCS(N)(=O)=O)c1)C(=O)O; X11 = NS(=O)(=O)c1ccc(C(=O)Nc2cccc(C[C@H](N[*:1])C(=O)[*:2])c2)s1; DOTA = O=C(O)CN1CCN(CC(=O)O)CCN(CC(=O)*)CCN(CC(=O)O)CC1; Phe(4-CF3) = N[C@@H](Cc1ccc(C(F)(F)F)cc1)C(=O)O; Propanoyl(3-SO2NH2) = NS(=O)(=O)CCC(=O)*; ξTrp(1-Me) = Cn1cc(CC(N)C(=O)O)c2ccccc21; Phe(4-NH2) = Nc1ccc(C[C@H](N)C(=O)O)cc1; mXylylene = c1cc(C[*:1])cc(C[*:2])c1; Trx = NC[C@H]1CC[C@H](C(=O)O)CC1; X2 = O=C(CN1CCC(N[*:1])CC1)[*:2]; X1 = O=C(CN1CCN([*:1])CC1)[*:2]; X27 = NS(=O)(=O)c1ccc(C(=O)*)s1; NMeD = CN[C@@H](CC(=O)O)C(=O)O; X29 = c1cc2cn[nH]c2cc1CN*; Dap = NC[C@H](N)C(=O)O A value given as a limit tells only on which side of the number the result lay.

With `CC(C)C[C@@H]1NC(=O)[C@H](Cc2cccc(NC(=O)CCCS(N)(=O)=O)c2)NC(=O)[C@H](CC(=O)O)NC(=O)[C@H]2CCCN2C(=O)[C@H](CCC(=O)O)NC(=O)[C@@H](NC(=O)[C@H](Cc2ccc(O)cc2)NC(=O)CN2CCN(C(=O)CN3CCN(CC(=O)O)CCN(CC(=O)O)CCN(CC(=O)O)CC3)CC2)CSCc2cccc(c2)CSC[C@@H](C(N)=O)NC(=O)[C@H](CO)NC(=O)[C@H](Cc2c[nH]c3ccccc23)NC(=O)[C@H]([C@@H](C)O)NC1=O` [3BP-4448] ({DOTA}-[X1]YCE[dP]D[Phe(3-NHCO(CH2)3SO2NH2)]LTWSC-NH2; linker 3-12 via mXylylene), the IC50 in assay [1] (setting [3]) was below 10 nM. Moreover, in assay [2], the “t1/2 category (activity)” value is reported as “A (t1/2>15.0 minutes)” and the Kd was below 10 nM.
In the case of `CC(C)C[C@@H]1NC(=O)[C@H](Cc2c[nH]c3ccccc23)NC(=O)[C@H](CC(=O)O)N(C)C(=O)[C@H]2CCCN2C(=O)[C@H](CCC(=O)O)NC(=O)[C@@H](NC(=O)[C@H](Cc2ccc(O)cc2)NC(=O)[C@@H](NC(=O)CN2CCC(NC(=O)CN3CCN(CC(=O)O)CCN(CC(=O)O)CCN(CC(=O)O)CC3)CC2)C(C)C)CSCc2cccc(c2)CSC[C@@H](C(N)=O)NC(=O)[C@H](CO)NC(=O)[C@H](Cc2c[nH]c3ccccc23)NC(=O)[C@H]([C@@H](C)O)NC1=O` [3BP-4107] ({DOTA}-[X2]VYCE[dP][NMeD]WLTWSC-NH2; linker 4-13 via mXylylene), the IC50 in assay [1] (setting [3]) was below 10 nM. Besides, in assay [2], the “t1/2 category (activity)” value was “A (t1/2>15.0 minutes)” and the Kd was below 10 nM.
Turning to `CC(C)C[C@@H]1NC(=O)[C@H](Cc2ccc(NC(=O)CCS(N)(=O)=O)cc2)NC(=O)[C@H](CC(=O)O)NC(=O)[C@H]2CCCN2C(=O)[C@H](CCC(=O)O)NC(=O)[C@@H]2CSCc3cccc(c3)CSC[C@@H](C(N)=O)NC(=O)[C@H](CNC(=O)CC[C@H](NC(=O)CN3CCN(C(=O)CN4CCN(CC(=O)O)CCN(CC(=O)O)CCN(CC(=O)O)CC4)CC3)C(=O)N2)NC(=O)[C@H](Cc2c[nH]c3ccccc23)NC(=O)[C@H]([C@@H](C)O)NC1=O` [3BP-4504] ({DOTA}-[X1]ECE[dP]D[Phe(4-NH2)](Propanoyl(3-SO2NH2))LTW[Dap]C-NH2; lactam 2-11; linker 3-12 via mXylylene), in assay [1] (setting [3]), the IC50 was below 10 nM. Also, in assay [2], the “t1/2 category (activity)” value was “A (t1/2>15.0 minutes)” and the Kd was below 10 nM.
Take `CC(C)C[C@@H]1NC(=O)[C@H](Cc2cccc(NC(=O)c3cc(S(N)(=O)=O)c[nH]3)c2)NC(=O)[C@H](CC(=O)O)NC(=O)[C@H]2CCCN2C(=O)[C@H](CCC(=O)O)NC(=O)[C@@H](NC(=O)[C@H](CCC(N)=O)NC(=O)CN2CCN(C(=O)CN3CCN(CC(=O)O)CCN(CC(=O)O)CCN(CC(=O)O)CC3)CC2)CSCc2cccc(c2)CSC[C@@H](C(N)=O)NC(=O)[C@H](CO)NC(=O)[C@H](Cc2c[nH]c3ccccc23)NC(=O)[C@H]([C@@H](C)O)NC1=O` [3BP-4789]: in assay [1] (setting [3]), the IC50 was 10 to 79.4 nM. In assay [2], the “t1/2 category (activity)” value was “C (t1/2 between 2.1 and 5.0 minutes)”; the Kd is 10 to 79.4 nM.
Consider `CC(C)C[C@@H]1NC(=O)[C@H](Cc2ccc(NC(=O)c3ccc(S(N)(=O)=O)s3)cc2)NC(=O)[C@H](CC(=O)O)NC(=O)[C@H]2CCCN2C(=O)[C@H](CCC(=O)O)NC(=O)[C@@H](NC(=O)[C@H](Cc2ccc(O)cc2)NC(=O)[C@@H](NC(=O)CN2CCC(NC(=O)CN3CCN(CC(=O)O)CCN(CC(=O)O)CCN(CC(=O)O)CC3)CC2)C(C)C)CSCc2cccc(c2)CSC[C@@H](C(N)=O)NC(=O)[C@H](CO)NC(=O)[C@H](Cc2c[nH]c3ccccc23)NC(=O)[C@H]([C@@H](C)O)NC1=O` [3BP-4402] ({DOTA}-[X2]VYCE[dP]D[Phe(4-NH2)](X27)LTWSC-NH2; linker 4-13 via mXylylene), for which the IC50 in assay [1] (setting [4]) is below 10 nM. In assay [2], the “t1/2 category (activity)” value is recorded as “A (t1/2>15.0 minutes)” and the Kd is below 10 nM.
As for `CC(C)C[C@@H]1NC(=O)[C@H](Cc2cccc(NC(=O)c3ccc(S(N)(=O)=O)s3)c2)NC(=O)[C@H](CC(=O)O)NC(=O)[C@H]2CCCN2C(=O)[C@H](CCC(=O)O)NC(=O)[C@@H](NC(=O)[C@H](Cc2ccc(O)cc2)NC(=O)[C@@H](NC(=O)CN2CCC(NC(=O)CN3CCN(CC(=O)O)CCN(CC(=O)O)CCN(CC(=O)O)CC3)CC2)C(C)C)CSCc2cccc(c2)CSC[C@@H](C(N)=O)NC(=O)[C@H](CO)NC(=O)[C@H](Cc2c[nH]c3ccccc23)NC(=O)[C@H]([C@@H](C)O)NC1=O` [3BP-4413] ({DOTA}-[X2]VYCE[dP]D[X11]LTWSC-NH2; linker 4-13 via mXylylene), in assay [1] (setting [4]), the IC50 is below 10 nM. In addition, in assay [2], the “t1/2 category (activity)” value was “A (t1/2>15.0 minutes)” and the Kd is below 10 nM.
For the molecule `CC(C)C[C@@H]1NC(=O)C(Cc2cn(C)c3ccccc23)NC(=O)[C@H](CC(=O)O)NC(=O)[C@H]2CCCN2C(=O)[C@H](CCC(=O)O)NC(=O)[C@@H](NC(=O)[C@H](Cc2ccc(O)cc2)NC(=O)[C@@H](NC(=O)CN2CCC(NC(=O)CN3CCN(CC(=O)O)CCN(CC(=O)O)CCN(CC(=O)O)CC3)CC2)C(C)C)CSCc2cccc(c2)CSC[C@@H](C(N)=O)NC(=O)[C@H](CO)NC(=O)[C@H](Cc2c[nH]c3ccccc23)NC(=O)[C@H]([C@@H](C)O)NC1=O` (stereo partly drawn) [3BP-4144] ({DOTA}-[X2]VYCE[dP]D[ξTrp(1-Me)]LTWSC-NH2; linker 4-13 via mXylylene), in assay [1] (setting [3]), the IC50 was below 10 nM. For the same molecule, in assay [2], the “t1/2 category (activity)” value was “B (t1/2 between 5.1 and 15.0 minutes)”; the Kd is below 10 nM.
Consider `CC(C)C[C@@H]1NC(=O)[C@H](Cc2c[nH]c3ccccc23)NC(=O)[C@H](CC(=O)O)NC(=O)[C@H]2CCCN2C(=O)[C@H](CCC(=O)O)NC(=O)[C@@H](NC(=O)[C@H](CO)NC(=O)[C@@H](NC(=O)CN2CCC(NC(=O)CN3CCN(CC(=O)O)CCN(CC(=O)O)CCN(CC(=O)O)CC3)CC2)C(C)C)CSCc2cccc(c2)CSC[C@@H](C(N)=O)NC(=O)[C@H](CO)NC(=O)[C@H](Cc2c[nH]c3ccccc23)NC(=O)[C@H]([C@@H](C)O)NC1=O` [3BP-4105] ({DOTA}-[X2]VSCE[dP]DWLTWSC-NH2; linker 4-13 via mXylylene), for which the IC50 in assay [1] (setting [3]) was below 10 nM. Moreover, in assay [2], the “t1/2 category (activity)” value is “B (t1/2 between 5.1 and 15.0 minutes)”; the Kd was below 10 nM.
For `CC(C)C[C@@H]1NC(=O)[C@H](Cc2ccc(C(F)(F)F)cc2)NC(=O)[C@H](CC(=O)O)NC(=O)[C@H]2CCCN2C(=O)[C@H](CCC(=O)O)NC(=O)[C@@H](NC(=O)[C@H](Cc2ccc(O)cc2)NC(=O)[C@@H](NC(=O)CN2CCC(NC(=O)CN3CCN(CC(=O)O)CCN(CC(=O)O)CCN(CC(=O)O)CC3)CC2)C(C)C)CSCc2cccc(c2)CSC[C@@H](C(N)=O)NC(=O)[C@H](CO)NC(=O)[C@H](Cc2c[nH]c3ccccc23)NC(=O)[C@H]([C@@H](C)O)NC1=O` [3BP-4139] ({DOTA}-[X2]VYCE[dP]D[Phe(4-CF3)]LTWSC-NH2; linker 4-13 via mXylylene), the IC50 in assay [1] (setting [3]) is below 10 nM. In assay [2], the “t1/2 category (activity)” value is “C (t1/2 between 2.1 and 5.0 minutes)”; the Kd is below 10 nM.
`CC(C)C[C@@H]1NC(=O)[C@H](Cc2c[nH]c3ccccc23)NC(=O)[C@H](CC(=O)O)NC(=O)[C@H]2CCCN2C(=O)[C@H](CCC(=O)O)NC(=O)[C@@H]2CSCc3cccc(c3)CSC[C@@H](C(N)=O)NC(=O)[C@H](CNC(=O)C[C@H](NC(=O)CN3CCC(NC(=O)CN4CCN(CC(=O)O)CCN(CC(=O)O)CCN(CC(=O)O)CC4)CC3)C(=O)N2)NC(=O)[C@H](Cc2c[nH]c3ccccc23)NC(=O)[C@H]([C@@H](C)O)NC1=O` [3BP-4254] ({DOTA}-[X2]DCE[dP]DWLTW[Dap]C-NH2; lactam 2-11; linker 3-12 via mXylylene): the IC50 in assay [1] (setting [3]) was below 10 nM. For the same molecule, in assay [2], the “t1/2 category (activity)” value is “C (t1/2 between 2.1 and 5.0 minutes)”; the Kd is below 10 nM.
Regarding `CC(C)C[C@@H]1NC(=O)[C@H](Cc2c[nH]c3ccccc23)NC(=O)[C@H](CCC(=O)NCc2ccc3cn[nH]c3c2)NC(=O)[C@H]2CCCN2C(=O)[C@H](CCC(=O)O)NC(=O)[C@@H](NC(=O)[C@H](Cc2ccc(O)cc2)NC(=O)[C@@H](NC(=O)CN2CCC(NC(=O)CN3CCN(CC(=O)O)CCN(CC(=O)O)CCN(CC(=O)O)CC3)CC2)C(C)C)CSCc2cccc(c2)CSC[C@@H](C(N)=O)NC(=O)[C@H](CO)NC(=O)[C@H](Cc2c[nH]c3ccccc23)NC(=O)[C@H]([C@@H](C)O)NC1=O` [3BP-4387] ({DOTA}-[X2]VYCE[dP]E(X29)WLTWSC-NH2; linker 4-13 via mXylylene), in assay [1] (setting [4]), the IC50 was 10 to 79.4 nM. In assay [2], the “t1/2 category (activity)” value is listed as “A (t1/2>15.0 minutes)” and the Kd is below 10 nM.
On to `CC(C)C[C@@H]1NC(=O)[C@H](Cc2c[nH]c3ccccc23)NC(=O)[C@H](CC(=O)O)NC(=O)[C@H]2CCCN2C(=O)[C@H](CCC(=O)O)NC(=O)[C@@H](NC(=O)[C@H](Cc2ccc(O)cc2)NC(=O)[C@H]2CC[C@H](CNC(=O)CN3CCN(CC(=O)O)CCN(CC(=O)O)CCN(CC(=O)O)CC3)CC2)CSCc2cccc(c2)CSC[C@@H](C(N)=O)NC(=O)[C@H](CO)NC(=O)[C@H](Cc2c[nH]c3ccccc23)NC(=O)[C@H]([C@@H](C)O)NC1=O` [3BP-3868] ({DOTA-Trx}-YCE[dP]DWLTWSC-NH2; linker 2-11 via mXylylene), for which the IC50 in assay [1] (FACS competition on HT-29 cells, Tracer ID 3BP-2776 (10 nM, biotin-labeled)) was below 10 nM. In assay [2], the “t1/2 category (activity)” value was “B (t1/2 between 5.1 and 15.0 minutes)”; the Kd was below 10 nM.

Source of the values: patent publication US20250339569A1, “CARBONIC ANHYDRASE IX LIGANDS” (priority 2021, published 2025).
